The record followed here is patent US20080090834A1, “SELECTIVE AZOLE PDE10A INHIBITOR COMPOUNDS” (Pfizer Inc, priority 2006, published 2008).

The structures appear in SMILES notation. Structures can show the parent of a compound that is named as a salt.

The experiment has as its target T1, cloned rat PDE10A full-length enzyme (Rattus norvegicus, UniProt Q9QYJ6).
T1 construct: cloned rat PDE10A full-length enzyme grown in transfected Sf9 insect cells; made in house; host or cells: Sf9 insect cells
T1 sequence (Q9QYJ6 1-794): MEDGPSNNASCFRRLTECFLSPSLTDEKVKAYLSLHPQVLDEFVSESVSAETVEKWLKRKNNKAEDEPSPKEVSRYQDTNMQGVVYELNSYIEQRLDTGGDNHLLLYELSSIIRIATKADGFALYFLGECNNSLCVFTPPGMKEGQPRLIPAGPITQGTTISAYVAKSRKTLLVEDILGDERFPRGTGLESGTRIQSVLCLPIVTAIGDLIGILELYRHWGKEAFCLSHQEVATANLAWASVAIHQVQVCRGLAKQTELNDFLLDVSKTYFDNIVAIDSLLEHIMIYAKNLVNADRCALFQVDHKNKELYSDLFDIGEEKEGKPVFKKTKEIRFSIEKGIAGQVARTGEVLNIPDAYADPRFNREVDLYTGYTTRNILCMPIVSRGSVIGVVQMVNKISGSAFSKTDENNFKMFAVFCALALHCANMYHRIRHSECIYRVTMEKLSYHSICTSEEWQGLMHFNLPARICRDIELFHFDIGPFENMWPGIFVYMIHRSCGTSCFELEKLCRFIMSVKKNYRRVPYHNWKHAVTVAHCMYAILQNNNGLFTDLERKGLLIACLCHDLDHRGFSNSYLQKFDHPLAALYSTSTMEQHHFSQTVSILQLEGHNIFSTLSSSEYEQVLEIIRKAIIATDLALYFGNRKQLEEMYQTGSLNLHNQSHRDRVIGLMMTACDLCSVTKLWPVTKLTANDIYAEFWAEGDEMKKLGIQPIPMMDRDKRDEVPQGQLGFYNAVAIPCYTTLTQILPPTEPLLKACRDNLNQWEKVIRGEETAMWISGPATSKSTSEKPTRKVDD
As to the kind of experiment: PDE10 enzyme inhibition, [3H]cAMP scintillation proximity assay. The format is biochemical. As to conditions: rat PDE10A from Sf9 cells, 20 nM [3H]cAMP, SPA beads, 20 minute incubation at room temperature. As for the experimental part: Compounds of the present invention were evaluated for ability to inhibit PDE10 enzyme with the following Assay procedure
The enzyme used in the procedure was cloned rat PDE10A full-length enzyme grown in transfected Sf9 insect cells. Cloned enzyme was extracted from homogenized cell pellets and stored frozen in homogenizing buffer until use. Compounds were initially dissolved in 100% DMSO and diluted out in 20 percent DMSO/water solution. Final concentration of DMSO in the assay was 2 percent as compounds were tested in triplicate in 96 well plates. Compound solution was placed in well, then tritiated cyclic AMP (New England Nuclear NET275) in assay buffer was added at 20 nM concentration. Then PDE10 enzyme in assay buffer of 50 mM Tris, 8.3 mM MgCl2, pH 7.5 at room temperature was added for a final assay volume of 100 ul. Concentration of enzyme was added such that less than 10 percent of [3H]cAMP at 20 nM was converted to detectable end product, [3H]AMP bound to SPA (Scintillation Proximity Assay) beads. Phosphodiesterase scintillation proximity yttrium silicate beads from Amersham Biosciences (RPNQ0150) were added (50 ul at 20 mg/ml) after a 20 minute incubation at room temperature. Zinc sulphate as a component of the beads stops the phosphodiesterase reaction.
Non-specific binding to SPA beads was determined by addition of 1 uM papaverine. Total conversion by enzyme without inhibitor of [3H]cAMP to [3H]AMP, as detected by scintillation of [3H]AMP bound to yttrium silicate beads, was determined in the presence of vehicle-only.
The compound `Cc1ncccc1-n1cc(-c2nccs2)nc1-c1ccc(-n2ccc3cccnc32)cc1` [Example 28, 1-(4-(1-(2-methylpyridin-3-yl)-4-(thiazol-2-yl)-1H-imidazol-2-yl)phenyl]-1H-pyrrolo[2,3-b]pyridine] registered an IC50 of 44.1 nM.

`COc1ccc(-n2cc(-c3nccs3)nc2-c2ccc(-n3ccc4cccnc43)cc2)cn1` [Example 29, 1-(4-(1-(6-methoxypyridin-3-yl)-4-(thiazol-2-yl)-1H-imidazol-2-yl)phenyl)-1H-pyrrolo[2,3-b]pyridine] showed an IC50 of 0.383 nM.

In turn, `CN(C)c1ccc(-n2cc(-c3nccs3)nc2-c2ccc(-n3ccc4cccnc43)cc2)cn1` [Example 30, 5-(2-(4-(1H-pyrrolo[2,3-b]pyridin-1-yl)phenyl)-4-(thiazol-2-yl)-1H-imidazol-1-yl)-N,N′-dimethylpyridin-2-mine] came in with an IC50 of 0.607 nM.

The compound `CNCCc1ccc(-n2cc(-c3nccs3)nc2-c2ccc(-n3ccc4cccnc43)cc2)cc1` [Example 31] displayed an IC50 of 6.63 nM.

Regarding `FC(F)(F)c1ccc(-n2cc(-c3nccs3)nc2-c2ccc(-n3ccc4cccnc43)cc2)cn1` [Example 32, 1-(4-(1-(6-(trifluoromethyl)pyridin-3-yl)-4-(thiazol-2-yl)-1H-imidazol-2-yl)phenyl)-1H-pyrrolo[2,3-b]pyridine], 2.13 nM corresponded to half-maximal inhibition (IC50).

As to `CNCc1ccc(-n2cc(-c3nccs3)nc2-c2ccc(-n3ccc4cccnc43)cc2)cc1` [Example 33, (4-(2-(4-(1H-pyrrolo[2,3-b]pyridin-1-yl)phenyl)-4-(thiazol-2-yl)-1H-imidazol-1-yl)phenyl-N-methylmethanamine Hydrochloride], the midpoint of inhibition, the IC50, lay at 14.1 nM.

`c1cnc2c(c1)ccn2-c1ccc(-c2nc(-c3nccs3)cn2-c2ccc(N3CCOCC3)nc2)cc1` [Example 34, 1-(4-(1-(6-morpholinopyridin-3-yl)-4-(thiazol-2-yl)-1H-imidazol-2-yl)phenyl)-1H-pyrrolo[2,3-b]pyridine] displayed a concentration for half-maximal inhibition (IC50) of 0.436 nM.

The compound `c1ccc(-c2cn(-c3cccnc3)c(-c3ccc(-n4ncc5ccccc54)cc3)n2)nc1` [Example 35, 1-(4-(4-(pyridin-2-yl)-1-(pyridin-3-yl)-1H-imidazol-2-yl)phenyl)-1H-indazole] had an IC50 of 27.8 nM.

In turn, `c1ccc(-c2cn(-c3cccnc3)c(-c3ccc(-n4ccc5ccccc54)cc3)n2)nc1` [Example 36, 1-(4-(4-(pyridin-2-yl)-1-(pyridin-3-yl)-1H-imidazol-2-yl)phenyl)-1H-indole] displayed a half-inhibitory concentration (IC50) of 281 nM.

Consider `Fc1cccc2ccn(-c3ccc(-c4nc(-c5ccccn5)cn4-c4cccnc4)cc3)c12` [Example 37], for which 30.8 nM corresponded to half-maximal inhibition (IC50).

In turn, `Fc1c(F)c(F)c2c(ccn2-c2ccc(-c3nc(-c4ccccn4)cn3-c3cccnc3)cc2)c1F` [Example 38, 4,5,6,7-tetratfluoro-1-(4-(4-(pyridin-2-yl)-1-(pyridin-3-yl)-1H-imidazol-2-yl)phenyl)-1H-indole] came in with an IC50 of 170 nM.

For `Clc1cccc2c1ccn2-c1ccc(-c2nc(-c3ccccn3)cn2-c2cccnc2)cc1` [Example 39, 4-chloro-1-(4-(4-(pyridin-2-yl)-1-(pyridin-3-yl)-1H-imidazol-2-y TFA salt], the IC50 came to 113 nM.

Take `N#Cc1cccc2c1ccn2-c1ccc(-c2nc(-c3ccccn3)cn2-c2cccnc2)cc1` [Example 40, 1-(4-(4-(pyridin-2-yl)-1-(pyridin-3-yl)-1H-imidazol-2-yl)phenyl)-1H-indole-4-carbonitrile bis-TFA salt]: the IC50 amounted to 65.4 nM.

The compound `Cc1cn(-c2ccc(-c3nc(-c4ccccn4)cn3-c3cccnc3)cc2)cn1` [Example 41, 3-(2-(4-(4-methyl-1H-imidazol-1-yl)phenyl)-4-(pyridin-2-yl)-1H-imidazol-1-yl)pyridine] registered an IC50 of 293 nM.

In the case of `c1ccc(-c2cn(-c3cccnc3)c(-c3ccc(-n4nnc5ccccc54)cc3)n2)nc1` [Example 42, 1-(4-(4-(pyridin-2-yl)-1-(pyridin-3-yl)-1H-imidazol-2-yl)phenyl)-1H-benzo[d][1,2,3]triazole bis-TFA salt], it took 67.8 nM to reach half-maximal inhibition (IC50).

`c1ccc(-c2cn(-c3cccnc3)c(-c3ccc(-n4c(-c5ccccn5)nc5ccccc54)cc3)n2)nc1` [Example 43, 2-(pyridin-2-yl)-1-(4-(4-(pyridin-2-yl)-1-(pyridin-3-yl)-1H-imidazol-2-yl)phenyl)-1H-benzo[d]imidazole] registered an IC50 of 33.1 nM.

`c1ccc(-c2cn(-c3cccnc3)c(-c3ccc(-n4ccnc4)cc3)n2)nc1` [Example 44, 3-(2-(4-(1H-imidazol-1-yl)phenyl)-4-(pyridin-2-yl)-1H-imidazol-1-yl)pyridine] came in with an IC50 of 522 nM.

`c1ccc(-c2cn(-c3cccnc3)c(-c3ccc(-n4cnc5ccccc54)cc3)n2)nc1` [Example 45, 1-(4-(4-(pyridin-2-yl)-1-(pyridin-3-yl)-1H-imidazol-2-yl)phenyl)-1H-benzo[d]imidazole] yielded an IC50 of 97.8 nM.

`Cc1ccc(-n2cc(-c3ccccn3)nc2-c2ccc(-n3ccc4nccnc43)cc2)cn1` [Example 50, 5-(4-(1-(6-methylpyridin-3-yl)-4-(pyridin-2-yl)-1H-imidazol-2-yl)phenyl)-5H-pyrrolo[3,2-b]pyrazine] displayed an IC50 below 3.47 nM.

Take `c1ccc(-c2cn(-c3cccnc3)c(-c3ccc(-n4nnc5cccnc54)cc3)n2)nc1` [Example 51, 3(4-(4-(pyridin-2-yl)-1-(pyridin-3-yl)-1H-imidazol-2-yl)phenyl)-3H-[1,2,3]triazole[4,5-b]pyridine bis-TFA salt]: half-maximal inhibition (IC50) required 11.5 nM.

Turning to `Cc1ccc(-n2cc(-c3ccccn3)nc2-c2ccc(-n3ccc4ncccc43)cc2)cn1` [Example 52, 1-(4-(1-(6-methylpyridin-3-yl)-4-(pyridin-2-yl)-1H-imidazol-2-yl)phenyl)-1H-pyrrolo[3,2-b]pyridine], half-maximal inhibition (IC50) was put at 9.32 nM.

`Cc1ccc(-n2cc(-c3ccccn3)nc2-c2ccc(-n3ccc4ccncc43)cc2)cn1` [Example 53] returned an IC50 of 5.69 nM.

Compound `Cc1ccc(-n2cc(-c3ccccn3)nc2-c2ccc(-n3ccc4cnccc43)cc2)cn1` [Example 54, 1-(4-(1-(6-methylpyridine-3-yl)-4-(pyridin-2-yl)-1H-imidazol-2-yl)phenyl)-1H-pyrrolo[3,2-c]pyridine] displayed a half-maximal inhibitory concentration (IC50) of 5.82 nM.

As for `Cc1ccc(-n2cc(-c3ccccn3)nc2-c2ccc(-n3cnc4cncnc43)cc2)cn1` [Example 55, 9-(4-(1-(6-methylpyridin-3-yl)-4-(pyridin-2-yl)-1H-imidazol-2-yl)phenyl-9H-purine and 7-(4-(1-(6-methylpyridin-3-yl)-4-pyridin-2-yl)-1H-imidazol-2-yl))phenyl)-7H-purine], the IC50 was found to be 10.2 nM.

`Cc1ccc(-n2cc(-c3ccccn3)nc2-c2ccc(-n3ncc4ccncc43)cc2)cn1` [Example 56, 1-(4-(1-(6-methylpyridin-3-yl)-4-(pyridin-2-yl)-1H-imidazol-2-yl)phenyl)-1H-pyrazolo[3,4-]pyridine] returned an IC50 of 6.44 nM.

For `Cc1ccc(-n2cc(-c3ccccn3)nc2-c2ccc(-n3c(C)nc4cccnc43)cc2)cn1` [Example 57, 2-methyl-3-(4-(1-(6-methylpyridin-3-yl)-4-(pyridin-2-yl)-1H-imidazol-2-yl)phenyl)-3H-imidazo[4,5-b]pyridine], inhibition was half-maximal at 1.89 nM (IC50).

Take `Cc1ccc(-n2cc(-c3ccccn3)nc2-c2ccc(-n3c(C(F)(F)F)nc4cccnc43)cc2)cn1` [Example 58, 2(trifluoromethyl)-3(4-(1-(6-methylpyridin-3-yl)-4-(pyridin-2-yl)-1H-imidazol-2-yl)phenyl)-3H-imidazo[4,5-b]pyridine]: the IC50 came to 1.06 nM.

Consider `Cc1ccc(-n2cc(-c3ccccn3)nc2-c2ccc(-n3c(C(C)C)nc4cccnc43)cc2)cn1` [Example 59, 2-isopropyl-3-(4-(1-(6-methylpyridin-3-yl)-4-(pyridin-2-yl)-1H-imidazol-2-yl)phenyl)-3H-imidazo[4,5-b]pyridine], for which it took 0.831 nM to reach half-maximal inhibition (IC50).

Broadly, the IC50 is the midpoint of a concentration-inhibition curve. Read a low IC50 as inhibition by little substance.
